Reference: patent publication US7563791B2, “Pyrrolotriazine derivatives useful for treating hyper-proliferative disorders and diseases associated with angiogenesis” (Bayer Pharmaceuticals Corporation, priority 2004, dated 2009)

Legend:
[1] = system: HCT116 cells; assay: Tumor cell proliferation (Alamar Blue), HCT116; format: cell-based; details: Homo sapiens, HCT-116, 72 h
Experimental: (§1) Human tumor cells (e.g., HCT116 or MDA-MB-231 cells), are seeded in a Costar 96-well plate at 3.0×10^3 cells/well and grown in 150 μl of RPMI complete media (Invitrogen Corporation, Grand Island, N.Y.) containing 10% fetal bovine serum (Hyclone, Logan, Utah) at 37° C. for 16 h in an incubator with 5% CO2. To each well, 50 μl of additional growth media containing 40 μM to 18 nM concentrations of compound with 0.4% DMSO is added. Cells are grown for another 72 h at 37° C. with 5% CO2. 20 μl of Alamar Blue (Trek Diagnostic Systems, Inc., Cleveland, Ohio) reagent is added to each well and incubated for 3 h at 37° C. Plates are read in a SpectraMax Gemini (Molecular Devices, Calif.) with 544 nm excitation and 590 nm emission wavelength. IC50 values are determined by linear regression analysis of log drug concentration versus percent inhibition.

[2] = system: MDA-MB-231 cells; assay: Tumor cell proliferation (Alamar Blue), MDA-MB-231; format: cell-based; details: Homo sapiens, MDA-MB-231, 72 h
Experimental: as §1

SMILES	IC50 [1] [µM]	IC50 ([1]; bounds given in μM) [µM]	IC50 ([2]; bounds given in μM) [µM]	IC50 [2] [µM]
CC(C)(C)c1cc(NC(=O)Nc2ccc(-c3c(C#N)cn4ncnc(N)c34)cc2)on1 [Example 161, N-[4-(4-amino-6-cyanopyrrolo[2,1-f][1,2,4]triazin-5-yl)phenyl]-N′-(3-tert-butylisoxazol-5-yl)urea]	> 0.5	< 1.5	1.5 to 5	
COCc1cn2ncnc(N)c2c1-c1ccc(NC(=O)Nc2cc(C(C)(C)C)nn2-c2ccc(F)cc2)cc1 [Example 217, N-{4-[4-amino-6-(methoxymethyl)pyrrolo[2,1-f][1,2,4]triazin-5-yl]phenyl}-N′-[3-tert-butyl-1-(4-fluorophenyl)-1H-pyrazol-5-yl]urea]		1.5 to 5	< 1.5	> 0.5
Nc1ncnn2cc(CN3CCOCC3)c(-c3ccc(NC(=O)Nc4cc(C(F)(F)F)ccn4)cc3)c12 [Example 225, N-{4-[4-amino-6-(morpholin-4-ylmethyl)pyrrolo[2,1-f][1,2,4]triazin-5-yl]phenyl}-N′-[4-(trifluoromethyl)pyridin-2-yl]urea]		1.5 to 5	1.5 to 5	
CCOC(=O)c1coc(-c2cn3ncnc(N)c3c2-c2ccc(NC(=O)Nc3cc(C(F)(F)F)ccn3)cc2)n1 [Example 232, ethyl 2-(4-amino-5-{4-[({[4-(trifluoromethyl)pyridin-2-yl]amino}carbonyl)amino]phenyl}pyrrolo[2,1-f][1,2,4]triazin-6-yl)-1,3-oxazole-4-carboxylate]		1.5 to 5	1.5 to 5	
Nc1ncnn2cc(-c3ncco3)c(-c3ccc(NC(=O)Nc4cc(C(F)(F)F)ccn4)cc3)c12 [Example 235, N-{4-[4-amino-6-(1,3-oxazol-2-yl)pyrrolo[2,1-f][1,2,4]triazin-5-yl]phenyl}-N′-[4-(trifluoromethyl)pyridin-2-yl]urea]	< 0.5		< 1.5	> 0.5

Results, then the compound that gave them:

IC50 [1] [µM]	IC50 ([1]; bounds given in μM) [µM]	IC50 ([2]; bounds given in μM) [µM]	IC50 [2] [µM]	SMILES
< 0.5		1.5 to 5		CCOC(=O)c1coc(-c2cn3ncnc(N)c3c2-c2ccc(NC(=O)Nc3cc(C(F)(F)F)ccc3F)cc2)n1 [Example 237, ethyl 2-(4-amino-5-{4-[({[2-fluoro-5-(trifluoromethyl)phenyl]amino}carbonyl)amino]phenyl}pyrrolo[2,1-f][1,2,4]triazin-6-yl)-1,3-oxazole-4-carboxylate]
> 0.5	< 1.5	1.5 to 5		Nc1ncnn2cc(-c3nc(CO)co3)c(-c3ccc(NC(=O)Nc4cc(C(F)(F)F)ccc4F)cc3)c12 [Example 241, N-(4-{4-amino-6-[4-(hydroxymethyl)-1,3-oxazol-2-yl]pyrrolo[2,1-f][1,2,4]triazin-5-yl}phenyl)-N′-[2-fluoro-5-(trifluoromethyl)phenyl]urea]
	1.5 to 5	1.5 to 5		CCOC(=O)c1cn2ncnc(N)c2c1-c1ccc(NC(=O)Nc2cc(C(F)(F)F)ccn2)c(F)c1 [Example 242, ethyl 4-amino-5-{3-fluoro-4-[({[4-(trifluoromethyl)pyridin-2-yl]amino}carbonyl)amino]phenyl}pyrrolo[2,1-f][1,2,4]triazine-6-carboxylate]
	1.5 to 5	< 1.5	> 0.5	COCCOCc1cn2ncnc(N)c2c1-c1ccc(NC(=O)Nc2cc(C(C)(C)C)nn2-c2ccc(F)cc2)cc1 [Example 248, N-(4-{4-amino-6-[(2-methoxyethoxy)methyl]pyrrolo[2,1-f][1,2,4]triazin-5-yl}phenyl)-N′-[3-tert-butyl-1-(4-fluorophenyl)-1H-pyrazol-5-yl]urea]
	1.5 to 5	1.5 to 5		COCc1cn2ncnc(N)c2c1-c1ccc(NC(=O)Nc2cc(C(F)(F)F)ccc2F)c(F)c1 [Example 254, N-{4-[4-amino-6-(methoxymethyl)pyrrolo[2,1-f][1,2,4]triazin-5-yl]-2-fluorophenyl}-N′-[2-fluoro-5-(trifluoromethyl)phenyl]urea]
	1.5 to 5	< 1.5	> 0.5	N#CCc1cn2ncnc(N)c2c1-c1ccc(NC(=O)Nc2cc(C(F)(F)F)ccn2)c(F)c1 [Example 255]
